# From patent publication US8293729B2 (Boehringer Ingelheim International GmbH, priority 2009, dated 2012)
# Like-named read-outs stand apart in the source and are kept apart here.
# Biological target: T1, human GPR119 receptor (Homo sapiens, UniProt Q8TDV5, S329A/T327A)
# T1 construct: N-terminal leader […]; expressed in transfected cells
# T1 sequence (Q8TDV5 with tags, fused parts or gaps T327A/S329A): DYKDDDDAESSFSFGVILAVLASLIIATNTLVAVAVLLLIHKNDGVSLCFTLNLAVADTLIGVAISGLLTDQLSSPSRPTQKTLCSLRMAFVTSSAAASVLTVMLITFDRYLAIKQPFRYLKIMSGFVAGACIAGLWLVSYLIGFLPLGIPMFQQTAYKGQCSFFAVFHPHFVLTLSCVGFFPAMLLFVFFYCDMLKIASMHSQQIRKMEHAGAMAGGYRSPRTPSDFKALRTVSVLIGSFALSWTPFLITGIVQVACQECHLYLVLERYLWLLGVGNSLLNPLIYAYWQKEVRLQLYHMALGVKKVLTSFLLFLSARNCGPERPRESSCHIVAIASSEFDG
# Assay: cAMP assay (LANCE cAMP-384) in HEK293 cells stably expressing mutant human GPR119 receptor
# Assay type: cell-based
# Settings: for activation at 10 µM: HEK293, 20 min
# Description: Quantitative detection of cAMP accumulation from cells expressing human GPR119 receptor was achieved using Perkin Elmer's LANCE cAMP-384 Kit (Cat#AD0264) according to the manufacturer's protocol. Briefly, HEK293 cells stably expressing a mutant form of the human GPR119 receptor (Methionine 1 replaced with the amino acid sequence […] (SEQ ID NO: 1), and T327 & S329 changed to alanines) were grown to 50-70% confluency in cell culture media (DMEM, 10% heat inactivated Fetal Bovine Serum, 50 I.U./mL penicillin, 50 μg/mL streptomycin, 10 mM HEPES, 20 μg/mL G418 Sulfate). On the day of the assay, GPR119 stable HEK293 cells were lifted from the tissue culture plate and 1000 cells/well were incubated along with various concentrations of test compounds for 20 min at 37° C. Detection Buffer (50mM HEPES, 10mM calcium chloride, 0.35% Triton X-100, 1 mg/mL BSA) containing cAMP-specific antibody was then added to all wells and allowed to equilibrate in the dark for 10 minutes at room temperature. Upon equilibration, Detection Buffer containing europium-labeled cAMP tracer complex was added to all wells and allowed to react for 1 hour at room temperature. After 1 hour, bound europium-labeled cAMP tracer was measured using a Perkin Elmer ViewLux. The quantity of cAMP generated in each well was derived from a standard curve. EC50 was determined using nonlinear regression analysis of the cAMP values over a range of agonist concentration (12 points spanning the range from 30 μM to 100pM).
# For some compounds for which no EC50 value could be determined, the efficacy is provided at a single concentration (10 μM) yielding % stimulation values.
# [1] = the 19th table, unit inferred, read-out: EC 50
# [2] = cAMP accumulation, HEK293 cells stably expressing mutant human GPR119, read-out: EC50
# [3] = the 38th table, compounds 66-65 to 66-72, read-out: EC50
# [4] = the 36th table, compounds 66-1 to 66-51, read-out: EC50
# [5] = the 43rd table, compounds 75-1 to 75-38, read-out: EC50
# [6] = single concentration 10 μM, given where no EC50 value could be determined, read-out: % stimulation at 10 μM
compound,measurement,setting,value
CCc1cnc(N2CCC(ON=C3CCN(c4cc(F)c(C(=O)N5CCCCC5CN)cc4F)CC3)CC2)nc1 (centres unmarked) [Example 29-131],EC50,[1],64 nM
CCc1cnc(N2CCC(ON=C3CCN(c4cc(F)c(C(=O)N5C[C@H]6CNC[C@H]6C5)cc4F)CC3)CC2)nc1 [Example 29-111],EC50,[1],295 nM
Cc1cc(C)nc(N2CCC(ON=C3CCN(c4ccc(S(C)(=O)=O)cc4F)CC3)CC2)n1 [Example 63-18],EC50,"the 32nd table, read-out: EC50",> 10000 nM
CC(C)OC(=O)N1CCC(ON=C2CCN(c3cnccn3)CC2)CC1 [Example 2-11],EC50,[2],> 10000 nM
CNC(=O)c1cc(F)c(N2CCC(=NOC3CCN(Cc4ccc(-c5cccnc5)cc4)CC3)CC2)cc1F [Example 66-66],EC50,[3],1270 nM
CC(OC(=O)N1CCC(ON=C2CCN(c3ccc(S(C)(=O)=O)cc3F)CC2)CC1)C1CC1 (centres unmarked) [Example 64-5],EC50,"the 33rd table, read-out: EC50",90 nM
CCc1ccc(N2CCC(ON=C3CCN(c4ccc(S(C)(=O)=O)cc4F)CC3)CC2)nc1 [Example 67-2],EC50,"the 39th table, compounds 67-1 to 67-3, read-out: EC50",558 nM
CC(C)OC(=O)N1CCC(ON=C2CCN(c3cc4[nH]cnc(=O)c4cc3F)CC2)CC1 [Example 2-61],EC50,[2],> 10000 nM
CS(=O)(=O)c1ccc(N2CCC(=NOC3CCN(C(=O)OCCN4CCCC4)CC3)CC2)c(F)c1 [Example 64-20],EC50,"the 33rd table, read-out: EC50",> 10000 nM
CC(C)OC(=O)N1CCC(ON=C2CCN(c3ncc(CN4CCCC4=O)cc3F)CC2)CC1 [Example 54-4],activation at 10 µM,"10 μM, the 30th table, read-out: stimulation in % at 10 μM",93%
CC(C)OC(=O)N1CCC(ON=C2CCN(c3ncc(Cn4nccn4)cc3F)CC2)CC1 [Example 54-3],EC50,"the 30th table, read-out: EC50",765 nM
CS(=O)(=O)c1ccc(N2CCC(=NOC3CCN(Cc4ccc(F)cc4)CC3)CC2)c(F)c1 [Example 66-33],EC50,[4],822 nM
CC(C)OC(=O)N1CCC(ON=C2CCN(c3cc(F)c(CC(=O)N4CCCCC4CN4CCOCC4)cc3F)CC2)CC1 (centres unmarked) [Example 75-31],EC50,[5],192 nM
CC(C)OC(=O)N1CCC(ON=C2CCN(c3ccc(C=O)cc3)CC2)CC1 [Example 2-28],EC50,[2],> 10000 nM
CC(C)OC(=O)N1CCC(ON=C2CCN(c3cc(F)c(-c4ccoc4)cc3F)CC2)CC1 [Example 27-3],EC50,[2],591 nM
CC(CO)CNC(=O)c1cc(F)c(N2CCC(=NOC3CCN(C(=O)OC(C)C)CC3)CC2)cc1F (centres unmarked) [Example 2-77],EC50,[2],47 nM
CCc1cnc(N2CCC(ON=C3CCN(c4cc(F)c(C(=O)N5CCC(CNC)CC5)cc4F)CC3)CC2)nc1 [Example 29-130],EC50,[1],206 nM
CC(CO)NC(=O)c1cc(F)c(N2CCC(=NOC3CCN(C(=O)OC(C)C)CC3)CC2)cc1F (centres unmarked) [Example 29-8],EC50,"the 15th table, read-out: EC50",81 nM
CNC(=O)c1cc(F)c(N2CCC(=NOC3CCN(Cc4ccc(C)cc4)CC3)CC2)cc1F [Example 66-70],EC50,[3],193 nM
CC(C)OC(=O)N1CCC(ON=C2CCN(c3cc(F)c(-c4cn[nH]c4)cc3F)CC2)CC1 [Example 27-10],EC50,[2],177 nM
CC(C)OC(=O)N1CCC(ON=C2CCN(c3cc(F)c(CNS(=O)(=O)C(C)C)cc3F)CC2)CC1 [Example 16-5],EC50,[2],142 nM
CCCc1ccc(CN2CCC(ON=C3CCN(c4cc(F)c(S(C)(=O)=O)cc4F)CC3)CC2)cc1 [Example 66-53],EC50,"the 37th table, compounds 66-52 to 66-64, read-out: EC50",35 nM
CC(C)OC(=O)N1CCC(ON=C2CCN(c3cc(F)c(Cn4cnnc4)cc3F)CC2)CC1 [Example 14-17],EC50,[2],28 nM
CC(C)OC(=O)N1CCC(ON=C2CCN(c3cc(F)c(-c4ccsc4)cc3F)CC2)CC1 [Example 27-12],EC50,[2],245 nM
CCc1cnc(N2CCC(ON=C3CCN(c4cc(F)c(CC(=O)N5CCC[C@@H](N)C5)cc4F)CC3)CC2)nc1 [Example 77-8],EC50,"the 44th table, compounds 77-1 to 77-14, read-out: EC50",30 nM
Cc1nc(CN2CCC(ON=C3CCN(c4ccc(S(C)(=O)=O)cc4F)CC3)CC2)c[nH]1 [Example 66-8],EC50,[4],> 10000 nM
Cc1cc(C=O)ccc1N1CCC(=NOC2CCN(C(=O)OC(C)C)CC2)CC1 [Example 2-29],EC50,[2],3170 nM
CC(C)OC(=O)N1CCC(ON=C2CCN(c3cc(F)c(CN(C)S(C)(=O)=O)cc3F)CC2)CC1 [Example 18-2],EC50,[2],150 nM
CC(C)OC(=O)N1CCC(ON=C2CCN(c3cc(F)c(-c4nnn[nH]4)cc3F)CC2)CC1 [Example 27-28],activation at 10 µM,[6],86%
Cc1ccc(CN2CCC(ON=C3CCN(c4ccc(S(C)(=O)=O)cc4F)CC3)CC2)c(F)c1F [Example 66-48],activation at 10 µM,"at 10 μM, printed in EC50 column of the 36th table, read-out: stimulation in % at 10 μM",99%
CC(C)OC(=O)N1CCC(ON=C2CCN(c3ncc(Br)cn3)CC2)CC1 [Example 2-17],EC50,[2],1180 nM
"CC(C)OC(=O)N1CCC(ON=C2CCN(c3cc(F)c(Cn4cccn4)cc3F)CC2)CC1 [Example 14-1, 4-{1[2,5-Difluoro-4-(pyrazol-1-ylmethyl)-phenyl]-piperidin-4-ylideneaminooxy}-piperidine-1-carboxylic acid isopropyl ester]",EC50,[2],38 nM
CC(C)OC(=O)N1CCC(ON=C2CCN(c3cc(F)c(-c4cc[nH]n4)cc3F)CC2)CC1 [Example 27-9],EC50,[2],232 nM
"CC(C)OC(=O)N1CCC(ON=C2CCN(c3cc(F)c(CO)cc3F)CC2)CC1 [Example 10-1, 4-[1-(2,5-Difluoro-4-hydroxymethyl-phenyl)-piperidin-4-ylideneaminooxy]-piperidine-1-carboxylic acid isopropyl ester]",EC50,[2],9 nM
CC(C)OC(=O)N1CCC(ON=C2CCN(c3cc(F)c(CN4CCOC(CC(=O)O)C4)cc3F)CC2)CC1 (centres unmarked) [Example 5-2],EC50,[2],5880 nM
CC(C)OC(=O)N1CCC(ON=C2CCN(c3cc(F)c(CC(=O)N4CC[C@H](CN)C4)cc3F)CC2)CC1 [Example 75-15],EC50,[5],29 nM
CNCc1cc(F)c(N2CCC(=NOC3CCN(C(=O)OC(C)C)CC3)CC2)cc1F [Example 5-6],activation at 10 µM,[6],78%
CC(C)OC(=O)N1CCC(ON=C2CCN(c3cc(F)c(C(=O)NCCCN)cc3F)CC2)CC1 [Example 29-7],EC50,"the 15th table, read-out: EC50",42 nM
CC(C)OC(=O)N1CCC(ON=C2CCN(c3cc(F)c(-c4ccccn4)cc3F)CC2)CC1 [Example 27-27],EC50,[2],159 nM
CS(=O)(=O)c1ccc(N2CCC(=NOC3CCN(c4ccc(S(C)(=O)=O)cc4F)CC3)CC2)c(F)c1 [Example 63-22],EC50,"the 32nd table, read-out: EC50",397 nM
CC(C)OC(=O)N1CCC(ON=C2CCN(c3cc(F)c(N4CCCC4=O)cc3F)CC2)CC1 [Example 22-7],EC50,[2],157 nM
CC(C)OC(=O)N1CCC(ON=C2CCN(c3cc(F)c(C=O)cc3F)CC2)CC1 [Example 2-3],EC50,[2],14 nM
CS(=O)(=O)c1ccc(N2CCC(=NOC3CCN(C(=O)OCC4CNCCO4)CC3)CC2)c(F)c1 (centres unmarked) [Example 64-38],EC50,"the 33rd table, read-out: EC50",> 10000 nM
COC(=O)c1cnc(N2CCC(ON=C3CCN(c4ccc(S(C)(=O)=O)cc4F)CC3)CC2)nc1 [Example 63-21],EC50,"the 32nd table, read-out: EC50",260 nM
CS(=O)(=O)c1ccc(N2CCC(=NOC3CCN(C(=O)c4ccc(F)cc4)CC3)CC2)c(F)c1 [Example 65-22],EC50,"the 34th table, compounds 65-1 to 65-24, read-out: EC50",132 nM
"CC(C)OC(=O)N1CCC(ON=C2CCN(c3cc(F)c(CN4CCCC4=O)cc3F)CC2)CC1 [Example 6-1, 4-{1-[2,5-Difluoro-4-(2-oxo-pyrrolidin-1-ylmethyl)-phenyl]-piperidin-4-ylideneaminooxy}-piperidine-1-carboxylic acid isopropyl ester]",EC50,[2],40 nM
CCc1cnc(N2CCC(ON=C3CCN(c4cc(F)c(C(=O)NCC5CNCCO5)cc4F)CC3)CC2)nc1 (centres unmarked) [Example 29-113],EC50,[1],26 nM
CCc1cnc(N2CCC(ON=C3CCN(c4cc(F)c(C(=O)N5CCC[C@H]5CN)cc4F)CC3)CC2)nc1 [Example 29-133],EC50,[1],164 nM
"CC(C)OC(=O)N1CCC(ON=C2CCN(c3cc(F)c(/C=C/C(=O)O)cc3F)CC2)CC1 [Example 40-1, 4-{1-[4-((E)-2-Carboxy-vinyl)-2,5-difluoro-phenyl]-piperidin-4-ylideneaminooxy}-piperidine-1-carboxylic acid isopropyl ester]",EC50,[2],2570 nM
COCCCNC(=O)c1cc(F)c(N2CCC(=NOC3CCN(C(=O)OC(C)C)CC3)CC2)cc1F [Example 29-10],EC50,"the 15th table, read-out: EC50",28 nM
